# Assay results: US20130190237A1, “METHODS FOR CATEGORISING CANCER SUCH AS BREAST CANCER” (IMPERIAL INNOVATIONS LIMITED, priority 2010, published 2013)
# Residues, ends and D or L forms follow the SMILES beside them. *: point of attachment. Cbz = O=C(OCc1ccccc1)*
# Key:
# [1] = system: ERα protein in MCF7 cells; test: Western blotting of ERα protein levels; assay type: cell-based, human; details: for ERα protein levels under LMTK3 silencing with co-treatment: MCF7, LMTK3 siRNA plus compound
# Protocol: (A) MCF7 cells (1×10^6) were plated in 10 cm^2 plates in phenol red-free DMEM containing 10% DSS. The following day, cells were transfected with 20 nM CT siRNA or LMTK3 siRNA for 72 h and then treated or not (ET-OH) with E2 (10 nM) for 24 h. Cells were harvested, lysed and equal protein amounts were subjected to Western Blotting analysis using the indicated antibodies. β-actin was used as a control for sample loading. (B) Quantitative analysis of ERα and LMTK3 protein levels is given as fold of control. […] (C) MCF7 cells (5×10^4) were plated in 24-well plates and transfected with 20 nM CT siRNA or LMTK3 siRNA for 48 h. Gene expression of ERα was measured by qRT-PCR.
# (§1) Whole cell lysates were prepared using NP40 lysis buffer (50 mM Tris-HCl, pH 8.0, 150 mM NaCl, 10% (v/v) glycerol, 1% NP40, 5 mM dithiothreitol (DTT), 1 mM EDTA, 1 mM EGTA, 50 μM leupeptin and 30 μg/ml aprotinin). These extracts were then clarified by centrifugation at 15000 rpm for 15 min at 4° C. for western blotting. The bicinchoninic acid (BCA) protein assay (Pierce) was used to determine the protein concentration of the lysates. […] The membranes were then blocked in TBS containing 0.1% (v/v) Tween20 and 5% (w/v) non-fat milk for 1 h and subsequently probed overnight with different antibodies following extensive washing with TBS/Tween and incubation with HRP-conjugated goat anti-rabbit IgG or goat anti-mouse IgG (1:1000 dilution) for 45 mins. Enhanced chemiluminescence (ECL) detection then allowed detection of the immunocomplexes. The intensity of the bands were quantified using Image J software (NIH, Bethesda, Md.).
# as §1, with “45 min.” for “45 mins.”, “the immuno-complexes.” for “the immunocomplexes.”, “bands was” for “bands were”
# LMTK3 kinase domain = biological target: T1, LMTK3 kinase domain (Homo sapiens, UniProt Q96Q04); test: LMTK3 inhibitor screening assay (CisBio KinEASE STK S1 kit, ratiometric fluorescent read-out); assay type: biochemical; details: for Average % Inhibition / Average pIC50: 10 nM LMTK3, 1 μM S1 peptide, ATP 10 μM; for Average pIC50: 120 mins at 37° C., N=5
# T1 construct: GST (N); made in house; host or cells: insect cells
# T1 sequence (Q96Q04 133-415): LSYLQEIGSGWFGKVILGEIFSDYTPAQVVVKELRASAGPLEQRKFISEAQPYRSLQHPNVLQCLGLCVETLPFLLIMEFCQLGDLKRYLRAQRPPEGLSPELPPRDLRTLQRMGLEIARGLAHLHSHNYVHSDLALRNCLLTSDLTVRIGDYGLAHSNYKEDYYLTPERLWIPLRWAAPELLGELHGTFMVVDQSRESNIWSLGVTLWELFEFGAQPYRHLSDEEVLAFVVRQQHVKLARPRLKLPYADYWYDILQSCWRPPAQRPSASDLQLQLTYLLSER
# Protocol: This exemplary assay has been developed to find inhibitors of LMTK3. The LMTK3 kinase domain (amino acids 133-415 of the full length kinase sequence, with an N-terminal GST tag) was expressed in insect cells and isolated via the GST N-terminal epitope.
# Kinase reactions are set up in the presence of 1% DMSO with ATP added at around KM (=10 μM). Kinase activity is monitored using the CisBio KinEASE STK S1 kit using a ratiometric fluorescent read-out at 665 and 620 nm. The assay uses 10 nM LMTK3, 1 μM S1 peptide, 10 mM MgCl2 in the manufacturer buffer with extension of reaction time to 120 mins at 37° C.
# Screening was performed in 384 low volume black microtitre plates with a final volume of 20 μl. The reaction was stopped with the addition of EDTA and detection reagents and fluorescence read on Pherastar. Data was normalised to the high control as specified by no inhibition and the low controls, equating to no activity (absence of ATP). Inhibitor activity was determined using concentration response curves, and using a four parameter fit to identify pIC50 values. Assay robustness was calculated using Z prime.
# LMTK3 gene expression = LMTK3 gene expression after E2 or tamoxifen; assay type: cell-based
# Protocol: Total RNA was isolated using the RNeasy kit (Qiagen). Reverse transcription was performed using high capacity cDNA reverse transcription kit (Applied Biosystems). RT-qPCR analysis was performed on a 7900HT Thermocycler (Applied Biosystems) using TaqMan mastermix and primers for TFF1, PGR, GREB1, FOXO3, FOXM1, LMTK1, LMTK2, LMTK3, MCL1 and GAPDH cDNAs, purchased from Applied Biosystems.
# [2] = system: Tamoxifen resistant cell lines (LCC9, MLET5, BT-474); test: WST-1 cell proliferation assay in tamoxifen resistant cell lines; assay type: cell-based; details: 20 nM siRNA, Tamoxifen 100 nM
# Protocol: Tamoxifen resistant cell lines (LCC9, MLET5, BT-474) were transfected with 20 nM of control siRNA or LMTK3 siRNA in the presence or absence of Tamoxifen (100 nM). Cells were subjected to the WST-1 cell proliferation assay, on the day of transfection (day 0) and then consecutive 48 h intervals. Absorbance was measured at 460 nm. Results represent the mean of three experiments per cell line ±SE.
# FIG. 28 Effects of LMTK3 silencing in tamoxifen-resistant cell lines. (a) BT-474, (b) MLET5 and, (c) LCC9 cells were transfected with LMTK3 siRNA in the presence or absence of tamoxifen (100 nM). Comparisons are shown amongst: i) siControl-transfected and tamoxifen treated cells (*), ii) siControl- and siLMTK3-transfected cells ($) and iii) tamoxifen treated and siLMTK3-transfected cells (p<0.05—Student's t test). Western blotting of AIB1 and p-ERα S118 protein expression levels are shown.
# The colorimetric Rapid Cell Proliferation kit (Calbiochem, UK) was used. The assay is based on the incubation of cells with the tatrazolium salt WST-1, which is cleaved by mitochondrial dehydrogenases, functional only in viable cells. […] The following day, cells were incubated with the WST-1 for 30 min at 37° C., according to manufacturer's instructions, and the absorbance read with the microplate reader at 460 nm was considered to be Day 0. […] Readings were repeated consecutively in 48 h intervals. […]
structure (smiles),measurement,setting,value
"C[C@]12CC[C@@H]3c4ccc(O)cc4CC[C@H]3[C@@H]1CC[C@@H]2O [E2, Estradiol]",decrease of ERα protein levels,"[1]; MCF7, E2 10 nM 24 h or 20 nM siRNA 72 h",~40%
CN(C)CCCn1cc(C2=C(c3c[nH]c4ccccc34)C(=O)NC2=O)c2ccccc21 [GF109203X],Average % Inhibition,LMTK3 kinase domain,107.89%
same,Average pIC50,LMTK3 kinase domain,9.88
COc1ccc2c(c1)c(C1=C(c3c[nH]c4ccccc34)C(=O)NC1=O)cn2CCCN(C)C [Go 6983],ERα protein levels under LMTK3 silencing with co-treatment,[1],partly rescues the LMTK3 siRNA-induced down-regulation of ERα
COC(=O)[C@@]1(O)C[C@H]2O[C@]1(C)n1c3ccccc3c3c4c(c5c6ccccc6n2c5c31)C(=O)NC4 [K-252a],IC50,LMTK3 kinase domain,79.4 nM
same,Average % Inhibition,LMTK3 kinase domain,98.91%
CCCCCCOC(=O)[C@]1(O)C[C@@H]2O[C@@]1(C)n1c3ccccc3c3c4c(c5c6ccccc6n2c5c31)C(=O)NC4 [KT5720],Average % Inhibition,LMTK3 kinase domain,98.65%
same,Average pIC50,LMTK3 kinase domain,9.93
CC(C)C[C@@H](C=O)NC(=O)[C@H](CC(C)C)NC(=O)[C@H](CC(C)C)NC(=O)OCc1ccccc1 [MG132] (Cbz-Leu-Leu-Leu-aldehyde),ERα protein levels under LMTK3 silencing with co-treatment,[1],partly rescued ERα degradation
CCCCCCCCCCCCCC(=O)O[C@@H]1[C@@H](C)[C@@]2(O)[C@@H](C=C(CO)C[C@]3(O)C(=O)C(C)=C[C@@H]23)[C@@H]2C(C)(C)[C@]12OC(C)=O [PMA],ERα protein levels under LMTK3 silencing with co-treatment,[1],further degrades ERα
CN[C@@H]1C[C@H]2O[C@@](C)([C@@H]1OC)n1c3ccccc3c3c4c(c5c6ccccc6n2c5c31)C(=O)NC4 [Staurosporine],IC50,LMTK3 kinase domain,0.0024 nM
same,Average % Inhibition,LMTK3 kinase domain,108.86%
CC/C(=C(\c1ccccc1)c1ccc(OCCN(C)C)cc1)c1ccccc1 [Tamoxifen],LMTK3 expression,LMTK3 gene expression,up-regulated
same,increase of ERα protein levels,"[1]; MCF7, Tam 100 nM 24 h",~50%
same,effect on growth of tamoxifen-resistant cell lines,[2],slightly affected basal cell growth
